The source of these data is patent US20260109715A1, “IMIDAZOPYRIDINE DERIVATIVES WITH BICYCLIC STRUCTURE” (PUBLIC UNIVERSITY CORPORATION YOKOHAMA CITY UNIVERSITY, priority 2022, published 2026).

By IC50 is commonly meant the concentration at which inhibition is half-maximal. Broadly, the EC50 is the concentration at which the effect is half-maximal.

Where a name gives a salt, the structure may show the parent alone. Read-outs that look alike come from different tables or passages of the source.

The target of one experiment is human SMG1 enzyme (Homo sapiens, UniProt Q96Q15). The experiment is described as follows: Measurement of SMG1 kinase activity (ADP-Glo Kinase Assay). It is filed as biochemical. To be noted: purified human SMG1 enzyme 5 nM, Upf1 peptide substrate, ATP 4 μM; qAC50 synonymous with IC50; read-out: Test Example 1 ADP-Glo IC50. The text has this:
The SMG1 kinase inhibitory activity of a compound of the present invention or a pharmaceutically acceptable salt thereof can be measured, for example, by the method described below. Using purified human SMG1 protein and a substrate peptide as materials, the kinase activity can be measured by the ADP-Glo Kinase Assay; the SMG1 kinase inhibitory activity of a test substance can be evaluated by comparing the kinase activity in the presence and absence of the test substance.
The reaction was performed by the ADP-Glo Kinase Assay (Promega, catalog number V9102) using a 384-well plate under the conditions of an assay buffer (100 mM HEPES (pH 7.5), 50 mM NaCl, 10 mM MnCl2, 0.01% BSA, 0.1% Tween 20.5 mM TCEP). After incubating a test substance (DMSO solution; final DMSO concentration: 1%) and purified human SMG1 enzyme (Genes Dev. 2011 Jan. 15; 25(2): 153-164, produced by Daiichi Sankyo RD Novare Co., Ltd.; final concentration: 5 nM) at room temperature for 15 minutes, a substrate, Upf1 peptide (Biotin-(PEG8) QIDVALSQDSTYQG, produced by Eurofins genomics; final concentration: 8 μg/mL), and ATP (Promega: 4 μM) were added, and the mixture was reacted at room temperature for 60 minutes (see Non-Patent Literature R. Melero, et al., Structure Volume 22, Issue 8, 5 Aug. 2014, Pages 1105-1119 for the Upf1 peptide). ADP-Glo Reagent was added, and the mixture was reacted at room temperature for 40 minutes. Kinase Detection Reagent was added, and the mixture was reacted for another 30 minutes. The luminescence intensity was measured using EnVision (PerkinElmer).
The activity value (%) of the test substance-added well was calculated from the following formula, where the average luminescence intensity of the DMSO-added well was 0% and the average luminescence intensity of the SMG1 enzyme-free well was −100%.
The qAC50 (compound concentration showing 50% inhibition, synonymous with IC50) of the test substance was calculated using the activity value (%) at each concentration by Smart fit of Screener (Genedata). Smart fit is a general 4-parameter logistic regression model.
In general terms: ADP-Glo turns the ADP formed in a reaction into a luminescent signal.

For experiment [1], the system named is Snhg1 transcript (NMD target gene) in EMT6 murine breast cancer cell line. In words: Measurement of NMD inhibitory activity in cells (increase in Snhg1 transcript, real-time PCR). Further details: species or system mouse. The following applies: 6 hours treatment, concentration giving 1/2 of maximum Snhg1 fold change of positive control, read-out: Test Example 2 Cell-based Snhg1 EC50. As to the method:
The NMD inhibitory activity of a compound of the present invention or a pharmaceutically acceptable salt thereof in cells can be measured, for example, by the method described below. EMT6 murine breast cancer cell line is treated with a test substance in vitro for 6 hours, and the increase in the transcript of Snhg1, a known NMD target gene, is quantified as an indicator of NMD inhibition. Quantification is performed by real-time PCR.
NMD inhibitory activity was measured by treating EMT6 murine breast cancer cell line (ATCC) with a test substance and quantifying the increase in the transcript of Snhg1, an NMD target gene (see F. Usui, et al., Scientific Reports volume 9, Article number: 1279 (2019) for the NMD target gene). That is, EMT6 cells were suspended in Waymouth's medium (Gibco, 15% FBS) and seeded in a 96-well plate at 2×10^4 cells/well. The cells were cultured for 1 day. The next day, serially diluted test substance (DMSO solution, final DMSO concentration: 2%) was added. After culturing for 6 hours, the supernatant was removed, and RNA was extracted using the RNeasy 96 kit (QIAGEN, 74182). After synthesizing cDNA using the High Capacity cDNA Reverse Transcription kit (Applied Biosystems, 4368813), the cDNA was mixed with PrimeTime Gene Expression Master Mix (Integrated DNA Technologies) and various probes, and gene expression was quantified using QuantStudio 6 Flex (Thermo Fisher Scientific Inc.). For the probe for the Snhg1 gene, which is an NMD target, Mm.PT.58.44039547 (FAM)(Integrated DNA Technologies) was used, and for the probe for the Tbp gene, which is an endogenous control, Mm00446973_m1 Tbp (VIC-PL) (Applied Biosystems) was used. The relative quantification of Snhg1 transcripts was calculated by the ΔΔCT method, using Thp as an endogenous control and setting the expression level of Snhg1 in untreated wells to 1.
A known NMD inhibitory compound (pyrimidine derivative Example 11i, Bioorg Med Chem Lett. 2012, 22(21), 6636-41) was used as a positive control drug for NMD inhibition. The NMD inhibitory activity of the test substance-added well was calculated as follows: the maximum fold change in Sngh1 expression in the positive control drug-added well relative to that in the untreated well was defined as the maximum NMD inhibitory activity, and the EC50 (compound concentration showing 50%/activity) of the test substance showing a ½-fold change was calculated by the GROWTH function of Microsoft Excel.

Sequence of human SMG1 enzyme (Q96Q15 whole entry): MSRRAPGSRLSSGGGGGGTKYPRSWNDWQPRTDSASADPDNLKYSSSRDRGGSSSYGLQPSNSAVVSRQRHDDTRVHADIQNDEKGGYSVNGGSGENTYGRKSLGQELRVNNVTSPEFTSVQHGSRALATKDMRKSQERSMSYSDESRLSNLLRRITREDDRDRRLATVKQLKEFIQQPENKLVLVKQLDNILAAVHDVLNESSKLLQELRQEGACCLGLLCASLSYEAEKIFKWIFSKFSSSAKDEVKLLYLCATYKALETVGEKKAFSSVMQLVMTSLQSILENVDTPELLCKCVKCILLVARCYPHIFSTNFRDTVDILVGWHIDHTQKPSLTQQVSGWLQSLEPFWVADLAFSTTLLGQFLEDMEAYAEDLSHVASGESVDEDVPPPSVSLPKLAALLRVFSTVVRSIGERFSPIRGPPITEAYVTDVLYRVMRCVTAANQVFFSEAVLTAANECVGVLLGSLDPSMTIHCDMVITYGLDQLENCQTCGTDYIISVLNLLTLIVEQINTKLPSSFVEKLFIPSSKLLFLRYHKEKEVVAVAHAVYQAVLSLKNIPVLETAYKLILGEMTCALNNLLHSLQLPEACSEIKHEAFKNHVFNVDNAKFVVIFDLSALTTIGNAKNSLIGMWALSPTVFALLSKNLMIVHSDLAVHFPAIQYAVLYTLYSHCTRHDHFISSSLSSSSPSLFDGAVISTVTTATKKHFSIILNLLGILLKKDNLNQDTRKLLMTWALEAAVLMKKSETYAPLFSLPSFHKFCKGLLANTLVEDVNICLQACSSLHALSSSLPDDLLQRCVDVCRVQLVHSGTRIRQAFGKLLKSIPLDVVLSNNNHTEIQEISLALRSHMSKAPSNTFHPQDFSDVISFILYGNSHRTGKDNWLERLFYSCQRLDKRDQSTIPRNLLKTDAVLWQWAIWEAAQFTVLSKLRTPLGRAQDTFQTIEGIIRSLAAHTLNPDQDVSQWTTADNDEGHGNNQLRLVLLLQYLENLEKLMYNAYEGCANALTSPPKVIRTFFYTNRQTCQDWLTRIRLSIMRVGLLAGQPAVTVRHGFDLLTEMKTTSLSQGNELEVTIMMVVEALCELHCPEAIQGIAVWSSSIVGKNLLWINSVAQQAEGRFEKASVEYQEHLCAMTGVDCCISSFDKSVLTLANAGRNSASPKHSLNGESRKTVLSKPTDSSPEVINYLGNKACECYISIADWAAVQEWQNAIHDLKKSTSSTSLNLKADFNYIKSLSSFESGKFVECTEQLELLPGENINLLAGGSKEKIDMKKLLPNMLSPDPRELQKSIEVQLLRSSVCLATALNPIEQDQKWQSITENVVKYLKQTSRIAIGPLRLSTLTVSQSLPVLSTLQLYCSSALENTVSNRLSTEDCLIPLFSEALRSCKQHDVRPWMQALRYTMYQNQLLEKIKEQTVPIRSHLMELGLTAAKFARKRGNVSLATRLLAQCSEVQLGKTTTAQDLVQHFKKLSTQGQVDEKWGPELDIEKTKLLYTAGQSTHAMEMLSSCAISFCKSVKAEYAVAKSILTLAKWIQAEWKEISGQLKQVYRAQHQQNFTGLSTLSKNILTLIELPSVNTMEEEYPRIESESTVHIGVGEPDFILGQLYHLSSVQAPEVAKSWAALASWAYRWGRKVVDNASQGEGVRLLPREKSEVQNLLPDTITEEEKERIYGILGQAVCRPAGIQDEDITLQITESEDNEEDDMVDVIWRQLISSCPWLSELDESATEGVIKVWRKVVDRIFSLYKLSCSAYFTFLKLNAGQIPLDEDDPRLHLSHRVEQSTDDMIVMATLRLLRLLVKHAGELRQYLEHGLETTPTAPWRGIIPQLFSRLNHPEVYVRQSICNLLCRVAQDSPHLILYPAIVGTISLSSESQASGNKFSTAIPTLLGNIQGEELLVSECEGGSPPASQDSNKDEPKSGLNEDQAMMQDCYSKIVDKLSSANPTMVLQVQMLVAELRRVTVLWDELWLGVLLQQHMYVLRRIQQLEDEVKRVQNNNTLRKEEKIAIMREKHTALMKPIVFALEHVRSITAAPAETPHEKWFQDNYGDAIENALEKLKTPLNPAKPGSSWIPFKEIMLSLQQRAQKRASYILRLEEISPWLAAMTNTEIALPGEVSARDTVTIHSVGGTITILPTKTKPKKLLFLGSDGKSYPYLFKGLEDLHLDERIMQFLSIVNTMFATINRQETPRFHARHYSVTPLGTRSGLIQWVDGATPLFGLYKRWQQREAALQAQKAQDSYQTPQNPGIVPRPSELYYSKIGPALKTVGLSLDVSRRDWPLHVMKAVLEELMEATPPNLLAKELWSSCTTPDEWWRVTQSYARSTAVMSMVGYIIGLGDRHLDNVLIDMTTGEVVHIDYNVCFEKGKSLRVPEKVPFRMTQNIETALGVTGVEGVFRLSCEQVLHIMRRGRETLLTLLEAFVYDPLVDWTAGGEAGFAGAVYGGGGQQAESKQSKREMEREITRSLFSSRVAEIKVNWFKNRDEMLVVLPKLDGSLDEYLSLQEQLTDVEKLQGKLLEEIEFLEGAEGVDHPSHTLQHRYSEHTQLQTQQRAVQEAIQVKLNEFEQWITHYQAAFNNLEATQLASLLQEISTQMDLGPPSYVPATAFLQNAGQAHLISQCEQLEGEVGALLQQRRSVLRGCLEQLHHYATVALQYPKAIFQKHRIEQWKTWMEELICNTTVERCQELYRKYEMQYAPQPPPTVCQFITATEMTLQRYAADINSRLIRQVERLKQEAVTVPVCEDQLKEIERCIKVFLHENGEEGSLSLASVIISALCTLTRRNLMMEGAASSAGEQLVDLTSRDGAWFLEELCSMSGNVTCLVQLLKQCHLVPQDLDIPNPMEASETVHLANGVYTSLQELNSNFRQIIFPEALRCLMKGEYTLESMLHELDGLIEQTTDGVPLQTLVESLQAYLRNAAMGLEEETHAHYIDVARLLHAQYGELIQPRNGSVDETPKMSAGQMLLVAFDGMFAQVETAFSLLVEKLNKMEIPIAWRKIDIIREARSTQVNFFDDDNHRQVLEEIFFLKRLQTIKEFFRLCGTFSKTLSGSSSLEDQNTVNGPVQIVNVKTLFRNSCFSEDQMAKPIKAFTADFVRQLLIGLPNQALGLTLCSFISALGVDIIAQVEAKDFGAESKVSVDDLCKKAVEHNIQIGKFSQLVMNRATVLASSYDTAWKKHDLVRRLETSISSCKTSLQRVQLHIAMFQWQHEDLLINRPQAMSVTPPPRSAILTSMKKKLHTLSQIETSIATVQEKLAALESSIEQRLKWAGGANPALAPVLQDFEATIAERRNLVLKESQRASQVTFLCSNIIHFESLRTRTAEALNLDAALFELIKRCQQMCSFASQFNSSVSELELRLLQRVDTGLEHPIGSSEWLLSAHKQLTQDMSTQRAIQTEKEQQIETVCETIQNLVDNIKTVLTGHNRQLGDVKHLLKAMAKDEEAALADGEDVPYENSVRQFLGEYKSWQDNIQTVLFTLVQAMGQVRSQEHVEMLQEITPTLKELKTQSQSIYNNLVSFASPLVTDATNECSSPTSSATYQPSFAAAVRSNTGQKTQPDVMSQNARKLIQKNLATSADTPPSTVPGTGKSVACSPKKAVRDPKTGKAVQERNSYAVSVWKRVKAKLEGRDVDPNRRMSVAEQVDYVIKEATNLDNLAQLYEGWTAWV

With “5-(2-chloro-6-fluorophenyl)-3-(6-chloro-1H-imidazo[4,5-c]pyridin-2-y1)-1,6-naphthyridin-2(1H)-one [Example 30]”, at human SMG1 enzyme, the concentration for half-maximal inhibition (IC50) was found to be 1.9 nM. In addition, the concentration for a half-maximal effect (EC50) in experiment [1] turned out to be 40 nM.

Take `C[C@@H]1COCCN1c1nc(Cl)cc2[nH]c(-c3cc4c(C5(C)CC5)nccc4[nH]c3=O)nc12` [Example 2, 3-{6-chloro-4-[(3R)-3-methylmorpholin-4-yl]-1H-imidazo[4,5-c]pyridin-2-yl}-5-(1-methylcyclopropyl)-1,6-naphthyridin-2(1H)-one]: the IC50 on human SMG1 enzyme came to 4.9 nM. The EC50 in experiment [1] (Mus musculus) was 94 nM.

Take `C[C@@H]1COCCN1c1nc(Cl)cc2[nH]c(-c3cc4cnc(C5=CCCN(C)C5)cc4[nH]c3=O)nc12` [Example 3, 3-{6-chloro-4-[(3R)-3-methylmorpholin-4-yl]-1H-imidazo[4,5-c]pyridin-2-yl}-7-(1-methyl-1,2,5,6-tetrahydropyridin-3-yl)-1,6-naphthyridin-2(1H)-one]: the IC50 at human SMG1 enzyme worked out at 4.6 nM. For the same molecule, the concentration for a half-maximal effect (EC50) in experiment [1] (Mus musculus) turned out to be 161 nM.

Take `O=c1[nH]c2ccncc2cc1-c1nc2c(N3CCOC[C@H]3C(F)F)nc(Cl)cc2[nH]1` [Example 4, 3-{6-chloro-4-[(3S)-3-(difluoromethyl)morpholin-4-yl]-1H-imidazo[4,5-c]pyridin-2-yl}-1,6-naphthyridin-2(1H)-one]: on human SMG1 enzyme, the half-maximal inhibitory concentration (IC50) turned out to be 2.4 nM. Moreover, in experiment [1] (Mus musculus), the EC50 amounted to 41 nM.

On to `CN(c1nc(Cl)cc2[nH]c(-c3cc4cnccc4[nH]c3=O)nc12)[C@H]1CC[C@H](O)CC1` [Example 5, 3-{6-chloro-4-[(trans-4-hydroxycyclohexyl)(methyl)amino]-1H-imidazo[4,5-c]pyridin-2-yl}-1,6-naphthyridin-2(1H)-one], for which, at human SMG1 enzyme, the IC50 is 1.4 nM. Besides, in experiment [1] (Mus musculus), the half-maximal effective concentration (EC50) was determined as 30 nM.

With `CC(C1CCOCC1)N(C)c1nc(Cl)cc2[nH]c(-c3cc4cnccc4[nH]c3=O)nc12` (stereo not drawn) [Example 6, 3-(6-chloro-4-{methyl[1-(tetrahydro-2H-pyran-4-yl)ethyl]amino}-1H-imidazo[4,5-c]pyridin-2-yl)-1,6-naphthyridin-2(1H)-one], on human SMG1 enzyme, the half-inhibitory concentration (IC50) stood at 1.4 nM. Moreover, the EC50 in experiment [1] (Mus musculus) was found to be 8.6 nM.

Take `C[C@@H](Nc1nc(Cl)cc2[nH]c(-c3cc4c(N5CCN(C)CC5)nccc4[nH]c3=O)nc12)C(F)(F)F` [Example 7, 3-(6-chloro-4-{[(2R)-1,1,1-trifluoropropan-2-yl]amino}-1H-imidazo[4,5-c]pyridin-2-yl)-5-(4-methylpiperazin-1-yl)-1,6-naphthyridin-2(1H)-one]: at human SMG1 enzyme, the half-maximal inhibitory concentration (IC50) came out at 6 nM. Besides, the concentration giving a half-maximal response (EC50) in experiment [1] (Mus musculus) turned out to be 95 nM.

Regarding `NC1CN(c2nc(Cl)cc3[nH]c(-c4cc5cnccc5[nH]c4=O)nc23)CC(F)(F)C1` (stereo not drawn) [Example 9, 3-[4-(5-amino-3,3-difluoropiperidin-1-yl)-6-chloro-1H-imidazo[4,5-c]pyridin-2-yl]-1,6-naphthyridin-2(1H)-one trifluoroacetate], the half-maximal inhibitory concentration (IC50) at human SMG1 enzyme was 4 nM. Moreover, in experiment [1] (Mus musculus), the concentration giving a half-maximal response (EC50) came out at 122 nM.

As for `Cc1cc2[nH]c(=O)c(-c3nc4c(C5CCOCC5)nc(Cl)cc4[nH]3)cc2c(C)n1` [Example 18, 3-[6-chloro-4-(tetrahydro-2H-pyran-4-yl)-1H-imidazo[4,5-c]pyridin-2-yl]-5,7-dimethyl-1,6-naphthyridin-2(1H)-one], the IC50 at human SMG1 enzyme stood at 0.57 nM. Also, the 50% effective concentration (EC50) in experiment [1] (Mus musculus) was determined as 43 nM.

In the case of `CCCc1nc(Cl)cc2[nH]c(-c3cc4c(C)nccc4[nH]c3=O)nc12` [Example 20, 3-(6-chloro-4-propyl-1H-imidazo[4,5-c]pyridin-2-yl)-5-methyl-1,6-naphthyridin-2(1H)-one], on human SMG1 enzyme, the IC50 was 2 nM. Moreover, in experiment [1] (Mus musculus), the EC50 was 13 nM.

In the case of `Nc1cccc(-c2nc(Cl)cc3[nH]c(-c4cc5cnccc5[nH]c4=O)nc23)c1` [Example 24, 3-[4-(3-aminophenyl)-6-chloro-1H-imidazo[4,5-c]pyridin-2-yl]-1H-1,6-naphthyridin-2-one trifluoroacetate], the IC50 at human SMG1 enzyme is 2.2 nM. In addition, in experiment [1] (Mus musculus), the concentration for a half-maximal effect (EC50) is 76 nM.

For the molecule `O=c1[nH]c2ccncc2cc1-c1nc2c(-c3ccccc3F)nc(Cl)cc2[nH]1` [Example 25, 3-[6-chloro-4-(2-fluorophenyl)-1H-imidazo[4,5-c]pyridin-2-yl]-1,6-naphthyridin-2(1H)-one], the half-maximal inhibitory concentration (IC50) on human SMG1 enzyme came out at 1.8 nM. The EC50 in experiment [1] (Mus musculus) was 39 nM.

Regarding `CCc1nc(Cl)cc2[nH]c(-c3cc4c(-c5ccccc5F)nccc4[nH]c3=O)nc12` [Example 27, 3-(6-chloro-4-ethy1-1H-imidazo[4,5-c]pyridin-2-y1)-5-(2-fluorophenyl)-1,6-naphthyridin-2(1H)-one], on human SMG1 enzyme, the IC50 turned out to be 1 nM. Also, the concentration for a half-maximal effect (EC50) in experiment [1] (Mus musculus) was 2.8 nM.

In the case of `Cc1c(OC(F)F)cccc1-c1nccc2[nH]c(=O)c(-c3nc4cnc(Cl)cc4[nH]3)cc12` [Example 33, 3-(6-chloro-1H-imidazo[4,5-c]pyridin-2-y1)-5-[3-(difluoromethoxy)-2-methylpheny1]-1,6-naphthyridin-2(1H)-one], the IC50 at human SMG1 enzyme was 3 nM. Moreover, in experiment [1] (Mus musculus), the concentration for a half-maximal effect (EC50) worked out at 48 nM.

For `[2H]C([2H])([2H])Oc1ccccc1-c1nccc2[nH]c(=O)c(-c3nc4c(C5CC5)nc(Cl)cc4[nH]3)cc12` [Example 39, 3-(6-chloro-4-cyclopropyl-1H-imidazo[4,5-c]pyridin-2-yl)-5-{2-[(^2H3)methyloxy]phenyl}-1,6-naphthyridin-2(1H)-one], at human SMG1 enzyme, the IC50 is 1.9 nM. Further, the half-maximal effective concentration (EC50) in experiment [1] (Mus musculus) worked out at 19 nM.

In the case of `[2H]C([2H])([2H])Oc1ccccc1-c1nccc2[nH]c(=O)c(-c3nc4c(C(C)O)nc(Cl)cc4[nH]3)cc12` (stereo not drawn) [Example 40, 3-[6-chloro-4-(1-hydroxyethyl)-1H-imidazo[4,5-c]pyridin-2-yl]-5-{2-[(^2H3)methyloxy]phenyl}-1,6-naphthyridin-2(1H)-one], the IC50 at human SMG1 enzyme is 0.53 nM. Moreover, the EC50 in experiment [1] (Mus musculus) turned out to be 11 nM.

For the molecule `[2H]C([2H])([2H])Oc1ccccc1-c1nccc2[nH]c(=O)c(-c3nc4c(C(C)F)nc(Cl)cc4[nH]3)cc12` (stereo not drawn) [Example 41, 3-[6-chloro-4-(1-fluoroethyl)-1H-imidazo[4,5-c]pyridin-2-yl]-5-{2-[(^2H3)methyloxy]phenyl}-1,6-naphthyridin-2(1H)-one], the IC50 at human SMG1 enzyme was 1.1 nM. In addition, the EC50 in experiment [1] (Mus musculus) was 4.8 nM.

Consider `[2H]C([2H])([2H])Oc1ccccc1-c1nccc2[nH]c(=O)c(-c3nc4c(CC(=O)NC(C)(C)C)nc(Cl)cc4[nH]3)cc12` [Example 42, N-tert-butyl-2-[6-chloro-2-(5-{2-[(^2H3)methyloxy]phenyl}-2-oxo-1,2-dihydro-1,6-naphthyridin-3-yl)-1H-imidazo[4,5-c]pyridin-4-yl]acetamide], for which the concentration for half-maximal inhibition (IC50) at human SMG1 enzyme was 2.6 nM. Moreover, in experiment [1] (Mus musculus), the EC50 is 124 nM.
